Source: PMC6620029 (Combinatorial chemistry & high throughput screening, 2009)

Target: human serum albumin (HSA) (Homo sapiens, UniProt P02768)
Assay: 1D 1H NMR line broadening with HSA
Type: binding

Sequence of human serum albumin (HSA) (P02768 25-609): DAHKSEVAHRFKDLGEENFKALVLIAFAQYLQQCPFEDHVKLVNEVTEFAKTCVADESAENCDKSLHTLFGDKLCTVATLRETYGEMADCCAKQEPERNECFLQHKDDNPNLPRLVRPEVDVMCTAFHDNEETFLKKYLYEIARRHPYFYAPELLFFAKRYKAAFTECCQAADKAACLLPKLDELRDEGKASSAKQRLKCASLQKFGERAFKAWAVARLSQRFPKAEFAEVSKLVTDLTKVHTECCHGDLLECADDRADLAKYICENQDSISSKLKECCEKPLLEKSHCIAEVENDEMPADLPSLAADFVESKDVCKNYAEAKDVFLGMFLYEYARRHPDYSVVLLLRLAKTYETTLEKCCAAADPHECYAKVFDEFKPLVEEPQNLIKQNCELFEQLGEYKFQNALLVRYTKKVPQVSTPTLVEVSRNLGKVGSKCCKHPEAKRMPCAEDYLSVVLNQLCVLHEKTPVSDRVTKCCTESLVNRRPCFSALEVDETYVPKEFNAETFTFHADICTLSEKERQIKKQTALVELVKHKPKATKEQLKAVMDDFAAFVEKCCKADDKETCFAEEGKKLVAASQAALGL

Question: For `Cc1cc(=O)oc2cc(O)ccc12` [7-hydroxy-4-methyl coumarin], which “1D 1H NMR line broadening with HSA; competition with warfarin” value is on record?
Answer: The NMR resonances of the coumarin-analogue broaden (Fig (6a, b)) from the addition of HSA
